Measurements reported in patent publication US10227350B2 (Gilead Sciences, Inc., priority 2016, dated 2019).

Biological target: PI3Kβ (Homo sapiens (Human), UniProt P42338)
Test: TR-FRET enzymatic activity assay, PI3Kβ
Type: biochemical
Settings: 2× Km ATP, 2 μM PIP2, 30 minutes at 25° C., read-out: IC50-PIP-Beta
Procedure: The compounds of formula (I) were characterized for their enzymatic activity against the PI3K isoforms. The activities were measured using a time-resolved fluorescence resonance energy transfer (TR-FRET) assay. TR-FRET monitored the formation of 3,4,5-inositol triphosphate molecule that competed with fluorescently labeled PIPS for binding to the GRP-1 pleckstrin homology domain protein.
Class I PI3K isoforms were expressed and purified as heterodimeric recombinant proteins. All assay reagents and buffers for the TR-FRET assay were purchased from Millipore. […] The compounds were added to the assay solution and incubated for 30 minutes at 25° C.

Sequence of PI3Kβ (P42338 whole entry): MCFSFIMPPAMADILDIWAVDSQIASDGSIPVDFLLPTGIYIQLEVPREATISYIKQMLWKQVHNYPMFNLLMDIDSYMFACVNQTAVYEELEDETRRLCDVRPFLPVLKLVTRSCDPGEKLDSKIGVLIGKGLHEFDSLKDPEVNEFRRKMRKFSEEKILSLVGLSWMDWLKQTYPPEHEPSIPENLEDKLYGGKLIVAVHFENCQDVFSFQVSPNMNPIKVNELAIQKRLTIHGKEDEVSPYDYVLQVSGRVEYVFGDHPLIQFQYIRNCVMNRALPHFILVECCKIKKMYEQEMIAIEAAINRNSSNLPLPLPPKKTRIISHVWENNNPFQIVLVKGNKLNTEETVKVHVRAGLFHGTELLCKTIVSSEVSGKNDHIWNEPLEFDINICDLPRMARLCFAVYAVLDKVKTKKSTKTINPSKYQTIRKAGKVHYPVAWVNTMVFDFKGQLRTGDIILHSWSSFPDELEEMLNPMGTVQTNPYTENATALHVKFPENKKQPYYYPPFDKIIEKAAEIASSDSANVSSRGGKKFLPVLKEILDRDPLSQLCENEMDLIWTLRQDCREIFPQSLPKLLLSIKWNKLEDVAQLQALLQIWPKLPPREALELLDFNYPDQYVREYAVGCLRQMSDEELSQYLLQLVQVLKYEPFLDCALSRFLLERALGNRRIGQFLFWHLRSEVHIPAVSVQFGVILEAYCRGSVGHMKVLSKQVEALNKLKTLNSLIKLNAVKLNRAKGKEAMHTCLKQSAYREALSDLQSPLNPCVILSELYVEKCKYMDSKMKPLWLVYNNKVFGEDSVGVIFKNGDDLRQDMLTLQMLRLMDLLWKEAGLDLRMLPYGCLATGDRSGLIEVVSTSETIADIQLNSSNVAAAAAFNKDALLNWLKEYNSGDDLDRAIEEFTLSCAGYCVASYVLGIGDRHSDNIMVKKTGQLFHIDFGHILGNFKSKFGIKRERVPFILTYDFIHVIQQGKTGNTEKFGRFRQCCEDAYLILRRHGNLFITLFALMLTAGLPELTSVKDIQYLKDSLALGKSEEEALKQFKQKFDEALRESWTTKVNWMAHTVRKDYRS
Sequence of PI3Kβ (P27986 whole entry partner): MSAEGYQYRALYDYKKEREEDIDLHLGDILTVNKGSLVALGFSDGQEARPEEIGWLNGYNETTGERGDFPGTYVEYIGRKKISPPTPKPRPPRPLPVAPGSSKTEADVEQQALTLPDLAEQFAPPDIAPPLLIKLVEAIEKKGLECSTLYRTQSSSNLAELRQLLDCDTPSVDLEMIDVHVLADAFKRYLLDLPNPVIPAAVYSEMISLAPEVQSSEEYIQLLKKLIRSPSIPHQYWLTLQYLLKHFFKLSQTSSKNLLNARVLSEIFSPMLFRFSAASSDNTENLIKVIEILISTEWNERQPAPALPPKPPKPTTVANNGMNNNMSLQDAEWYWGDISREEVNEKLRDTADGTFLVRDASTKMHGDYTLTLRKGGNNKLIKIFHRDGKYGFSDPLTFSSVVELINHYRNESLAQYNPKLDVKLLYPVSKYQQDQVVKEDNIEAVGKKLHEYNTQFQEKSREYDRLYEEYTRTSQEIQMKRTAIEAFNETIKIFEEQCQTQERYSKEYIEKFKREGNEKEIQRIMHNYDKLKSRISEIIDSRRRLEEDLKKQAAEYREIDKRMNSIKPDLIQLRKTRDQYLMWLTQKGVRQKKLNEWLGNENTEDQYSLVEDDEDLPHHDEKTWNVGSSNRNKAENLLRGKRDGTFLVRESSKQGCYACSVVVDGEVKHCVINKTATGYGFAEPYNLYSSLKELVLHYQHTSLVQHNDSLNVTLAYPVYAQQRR

SMILES	IC50
Nc1cc(-c2cc(-c3nnc[nH]3)c3nc(C4CC4)n(-c4ccnc5c(F)ccc(F)c45)c3c2)ccn1 [Example 69, 4-[2-cyclopropyl-3-(5,8-difluoroquinolin-4-yl)-7-(4H-1,2,4-triazol-3-yl)benzimidazol-5-yl]pyridin-2-amine]	47 nM
Cc1nc2c(-c3nnc[nH]3)cc(-c3ccnc(N)c3F)cc2n1-c1ccnc2c(F)ccc(F)c12 [Example 75, 4-[3-(5,8-difluoroquinolin-4-yl)-2-methyl-7-(4H-1,2,4-triazol-3-yl)benzimidazol-5-yl]-3-fluoropyridin-2-amine]	3 nM
Cc1nc2c(-c3nnc[nH]3)cc(-c3cc(N)nc(N)n3)cc2n1-c1ccnc2c(Cl)cccc12 [Example 57, 6-[3-(8-chloroquinolin-4-yl)-2-methyl-7-(4H-1,2,4-triazol-3-yl)benzimidazol-5-yl]pyrimidine-2,4-diamine]	290 nM
Cc1nc2c(-c3nnc[nH]3)cc(-c3ccnc(N)c3F)cc2n1-c1ccnc2c(Cl)cccc12 [Example 80, 4-(1-(8-chloroquinolin-4-yl)-2-methyl-4-(4H-1,2,4-triazol-3-yl)-1H-benzo[d]imidazol-6-yl)-3-fluoropyridin-2-amine]	2 nM
Cc1nnc(-c2cc(-c3ccnc(N)c3)cc3c2nc(C2CC2)n3-c2ccnc3c(Cl)ccc(F)c23)[nH]1 [Example 64, 4-[3-(8-chloro-5-fluoroquinolin-4-yl)-2-cyclopropyl-7-(5-methyl-4H-1,2,4-triazol-3-yl)benzimidazol-5-yl]pyridin-2-amine]	200 nM
Cc1nc2c(-c3nnc[nH]3)cc(-c3ccncc3)cc2n1-c1ccnc2c(F)ccc(F)c12 (single isomer, unassigned) [Example 140, 5,8-difluoro-4-(2-methyl-6-(pyridin-4-yl)-4-(4H-1,2,4-triazol-3-yl)-1H-benzo[d]imidazol-1-yl)quinoline]	540 nM
Nc1cc(-c2cc(-c3nnc[nH]3)c3nc(C4CC4)n(-c4ccnc5c(F)cccc45)c3c2)ccn1 [Example 60, 4-[2-cyclopropyl-3-(8-fluoroquinolin-4-yl)-7-(4H-1,2,4-triazol-3-yl)benzimidazol-5-yl]pyridin-2-amine]	420 nM
Cc1nc2c(-c3nnc[nH]3)cc(-c3ccnc(C#N)c3)cc2n1-c1ccnc2c(Cl)ccc(F)c12 (single isomer, unassigned) [Example 136, 4-(1-(8-chloro-5-fluoroquinolin-4-yl)-2-methyl-4-(4H-1,2,4-triazol-3-yl)-1H-benzo[d]imidazol-6-yl)picolinonitrile]	220 nM
Cc1nnc(-c2cc(-c3ccnc(N)c3F)cc3c2nc(C)n3-c2ccnc3c(Cl)ccc(F)c23)[nH]1 (single isomer, unassigned) [Example 112, 4-[3-(8-chloro-5-fluoroquinolin-4-yl)-2-methyl-7-(5-methyl-4H-1,2,4-triazol-3-yl)benzimidazol-5-yl]-3-fluoropyridin-2-amine]	5 nM
Cc1nc2c(-c3nnc[nH]3)cc(-c3ccnc(C#N)n3)cc2n1-c1ccnc2c(F)ccc(F)c12 [Example 152, 4-(1-(5,8-difluoroquinolin-4-yl)-2-methyl-4-(4H-1,2,4-triazol-3-yl)-1H-benzo[d]imidazol-6-yl)pyrimidine-2-carbonitrile]	10 nM
Cc1cnc2c(Cl)cccc2c1-n1c(C)nc2c(-c3nnc[nH]3)cc(-c3ccnc(N)c3F)cc21 [Example 89, 4-[3-(8-chloro-3-methylquinolin-4-yl)-2-methyl-7-(4H-1,2,4-triazol-3-yl)benzimidazol-5-yl]-3-fluoropyridin-2-amine]	3 nM
Cc1nc2c(-c3nnc[nH]3)cc(-c3ccncc3F)cc2n1-c1ccnc2c(Cl)cccc12 (single isomer, unassigned) [Example 137, 8-chloro-4-(6-(3-fluoropyridin-4-yl)-2-methyl-4-(4H-1,2,4-triazol-3-yl)-1H-benzo[d]imidazol-1-yl)quinoline]	10 nM
Cc1nc2c(C(N)=O)cc(-c3ccnc(N)c3F)cc2n1-c1ccnc2c(F)ccc(F)c12 [Example 26, 6-(2-amino-3-fluoropyridin-4-yl)-1-(5,8-difluoroquinolin-4-yl)-2-methyl-1H-benzo[d]imidazole-4-carboxamide]	13 nM
Cc1nnc(-c2cc(-c3ccnc(N)c3)cc3c2nc(C(C)C)n3-c2ccnc3c(Cl)ccc(F)c23)[nH]1 [Example 66, 4-[3-(8-chloro-5-fluoroquinolin-4-yl)-7-(5-methyl-4H-1,2,4-triazol-3-yl)-2-propan-2-ylbenzimidazol-5-yl]pyridin-2-amine]	140 nM
Nc1nccc(-c2cc(-c3nnc[nH]3)c3nc(C4CC4)n(-c4ccnc5c(F)ccc(F)c45)c3c2)c1F [Example 81, 4-[2-cyclopropyl-3-(5,8-difluoroquinolin-4-yl)-7-(4H-1,2,4-triazol-3-yl)benzimidazol-5-yl]-3-fluoropyridin-2-amine]	15 nM
Cc1nc2c(-c3nnc[nH]3)cc(-c3ccnc(C#N)c3)cc2n1-c1ccnc2cccc(F)c12 (single isomer, unassigned) [Example 131, 4-(1-(5-fluoroquinolin-4-yl)-2-methyl-4-(4H-1,2,4-triazol-3-yl)-1H-benzo[d]imidazol-6-yl)picolinonitrile]	2 nM
Cc1nc2c(-c3nnc[nH]3)cc(-c3ccnc(N)n3)cc2n1-c1ccnc2c(Cl)cccc12 [Example 56, 4-[3-(8-chloroquinolin-4-yl)-2-methyl-7-(4H-1,2,4-triazol-3-yl)benzimidazol-5-yl]pyrimidin-2-amine]	9 nM
Cc1nc2c(-c3nnc[nH]3)cc(-c3ccnc(C#N)c3)cc2n1-c1ccnc2c(F)cccc12 (single isomer, unassigned) [Example 127, 4-(1-(8-fluoroquinolin-4-yl)-2-methyl-4-(4H-1,2,4-triazol-3-yl)-1H-benzo[d]imidazol-6-yl)picolinonitrile]	9 nM
Cc1nc2c(-c3nnc[nH]3)cc(-c3ccnc(C#N)c3)cc2n1-c1ccnc2cc(F)cc(F)c12 (single isomer, unassigned) [Example 116, 4-(1-(5,7-difluoroquinolin-4-yl)-2-methyl-4-(4H-1,2,4-triazol-3-yl)-1H-benzo[d]imidazol-6-yl)picolinonitrile]	30 nM
Cc1nc2c(-c3nnc[nH]3)cc(-c3ccnc(C#N)c3)cc2n1-c1ccnc2cccc(Cl)c12 [Example 146, 4-(1-(5-chloroquinolin-4-yl)-2-methyl-4-(4H-1,2,4-triazol-3-yl)-1H-benzo[d]imidazol-6-yl)picolinonitrile]	200 nM
Cc1nc2c(-c3nnc[nH]3)cc(-c3ccnc(N)c3)cc2n1-c1ccnc2cccc(F)c12 [Example 55, 4-[3-(5-fluoroquinolin-4-yl)-2-methyl-7-(4H-1,2,4-triazol-3-yl)benzimidazol-5-yl]pyridin-2-amine]	19 nM
Fc1nccc(-c2ccc3ncn(-c4cc(N5CCNCC5)nc5ccccc45)c3c2)c1F [Example 165, 4-(6-(2,3-difluoropyridin-4-yl)-1H-benzo[d]imidazol-1-yl)-2-(piperazin-1-yl)quinoline]	480 nM
Nc1cc(-c2cc(-c3nnc[nH]3)c3nc(C4CC4)n(-c4ccnc5c(Cl)cccc45)c3c2)ccn1 [Example 74, 4-[3-(8-chloroquinolin-4-yl)-2-cyclopropyl-7-(4H-1,2,4-triazol-3-yl)benzimidazol-5-yl]pyridin-2-amine]	29 nM
Cc1nc2c(-c3nnc[nH]3)cc(-c3ccnc(N)c3F)cc2n1-c1c(Cl)cnc2c(F)cccc12 (single isomer, unassigned) [Example 107, 4-[3-(3-chloro-8-fluoroquinolin-4-yl)-2-methyl-7-(4H-1,2,4-triazol-3-yl)benzimidazol-5-yl]-3-fluoropyridin-2-amine]	29 nM
Cc1nnc(-c2cc(-c3ccnc(C#N)c3)cc3c2nc(C)n3-c2ccnc3c(Cl)ccc(F)c23)[nH]1 [Example 150, 4-(1-(8-chloro-5-fluoroquinolin-4-yl)-2-methyl-4-(5-methyl-4H-1,2,4-triazol-3-yl)-1H-benzo[d]imidazol-6-yl)picolinonitrile]	13 nM
Cc1nnc(-c2cc(-c3ccnc(C#N)c3)cc3c2nc(C)n3-c2ccnc3c(F)ccc(F)c23)[nH]1 [Example 151, 4-(1-(5,8-difluoroquinolin-4-yl)-2-methyl-4-(5-methyl-4H-1,2,4-triazol-3-yl)-1H-benzo[d]imidazol-6-yl)picolinonitrile]	80 nM
Cc1cc(-c2cc(-c3nnc[nH]3)c3nc(C)n(-c4ccnc5c(F)ccc(F)c45)c3c2)ccn1 (single isomer, unassigned) [Example 141, 5,8-difluoro-4-(2-methyl-6-(2-methylpyridin-4-yl)-4-(4H-1,2,4-triazol-3-yl)-1H-benzo[d]imidazol-1-yl)quinoline]	120 nM
Clc1cccc2c(-n3cnc4c(-c5ncn[nH]5)cc(-c5ccncc5)cc43)ccnc12 [Example 27, 8-chloro-4-[6-pyridin-4-yl-4-(1H-1,2,4-triazol-5-yl)benzimidazol-1-yl]quinoline]	5 nM
Nc1nccc(-c2cc(-c3nnc[nH]3)c3nc(CC4CC4)n(-c4ccnc5c(F)ccc(F)c45)c3c2)c1F [Example 96, 4-[2-(cyclopropylmethyl)-3-(5,8-difluoroquinolin-4-yl)-7-(4H-1,2,4-triazol-3-yl)benzimidazol-5-yl]-3-fluoropyridin-2-amine]	7 nM
Cc1nc2c(-c3nnc[nH]3)cc(-c3ccnc(C#N)c3)cc2n1-c1ccnc2c(F)ccc(F)c12 (single isomer, unassigned) [Example 113, 4-[3-(5,8-difluoroquinolin-4-yl)-2-methyl-7-(4H-1,2,4-triazol-3-yl)benzimidazol-5-yl]pyridine-2-carbonitrile]	2 nM
